Our source for the GI50 and IC50 values is patent publication US20250179059A1 (The Regents of the University of California, priority 2021, published 2025).

Where only a bound is given, the exact number is not on record here.

In assay [1] the test system is human SKM-1 acute myeloid leukemia cells. Kind of assay: SKM-1 antiproliferation cell-based assay (ATPlite). Conditions: Homo sapiens, SKM-1, SKM-1 antiproliferation assay. In outline:
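Log-phase cells in RPMI 1640/15% FBS were seeded at 34722 cells/mL and exposed for 4 days to nine-concentration DMSO serial dilutions in triplicate. Viability was read as ATP luminescence (ATPlite 1step), and IC50 values came from variable-slope non-linear regression.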

For assay [2], the target named is T1, human BRD4 bromodomain II (Homo sapiens, UniProt O60885).
T1 construct: human BRD4 bromodomain II [based on Genbank NM_058243, residues 349-460]; host or cells: E. coli
The assay is described as follows: Bromodomain binding assay (AlphaScreen), BRD4 BDII. Conditions: BRD4 BDII AlphaScreen assay; read-out: BRD4 BD2 IC50. In outline: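 AlphaScreen competition with biotinylated H4 peptide (aa 1-21, K5/K8/K12/K16Ac), using nickel-chelate acceptor and streptavidin donor beads. Targets were His6-BRD4 BDI (44-170) or BDII (349-460), with a 30 min compound preincubation over a 10-point 3-fold series. IC50 was fitted from percentage peptide binding.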
A general note: Alpha assays give light when donor and acceptor beads are brought close together.

A word on the GI50: it is the concentration giving 50% growth inhibition. One may read the IC50 as the concentration needed to halve the response being measured. `Cc1ncc(-c2cc(F)cc(-c3ccc(-n4ccn(C)c4=O)c(Cl)c3)c2O)cc1N1CCN(C2CCC2)CC1` [Example 883] showed a 50% growth inhibitory concentration (GI50) in assay [1] of 0.3 to 30 nM. In assay [2], the 50% inhibitory concentration (IC50) lay within 1 to 10 nM.

The molecule `Cc1ncc(-c2cc(F)cc(-c3ccc(-n4ccn(C)c4=O)c(Cl)c3)c2O)cc1N1CC(C)(C)[C@](C)(O)C1` [Example 884] returned a 50% growth inhibitory concentration (GI50) in assay [1] of 30 to 300 nM. Further, in assay [2], the IC50 lay within 1 to 10 nM.

`Cc1ncc(-c2cc(F)cc(-c3ccc(-n4ccn(C)c4=O)c(Cl)c3)c2O)cc1N1CC(C)(C)[C@@](C)(O)C1` [Example 885] yielded a GI50 in assay [1] of 30 to 300 nM. The IC50 in assay [2] fell in the range of 1 to 10 nM.

With `[2H]C([2H])([2H])n1ccn(-c2ccc(-c3cc(F)cc(-c4cccc(N5CCN(C(C)(C)C)CC5)c4)c3O)cc2Cl)c1=O` [Example 886], the GI50 in assay [1] fell in the range of 0.3 to 30 nM. Further, the IC50 in assay [2] is 1 to 10 nM.

Consider `CC(=O)Nc1cnc(-c2cc(F)cc(-c3cccc(N4CCN(C(C)(C)C)CC4)c3)c2O)cn1` [Example 887], for which the GI50 in assay [1] fell in the range of 300 to 3000 nM. In addition, the IC50 in assay [2] was over 100 nM.

With `CC(=O)Nc1cccc(-c2cc(F)cc(-c3cccc(N4CCNCC4)c3)c2O)c1Cl` [Example 888], the GI50 in assay [1] lay in the range of 300 to 3000 nM. Moreover, the IC50 in assay [2] is over 100 nM.

With `Cn1ccn(-c2ccc(-c3cc(F)cc(-c4ccccc4CN4CCNCC4)c3O)cc2Cl)c1=O` [Example 889], in assay [1], the GI50 lay in the range of 300 to 3000 nM. The half-maximal inhibitory concentration (IC50) in assay [2] was over 100 nM.

`Cc1ncc(-c2cc(F)cc(-c3ccc(-n4ccn(C)c4=O)c(Cl)c3)c2O)cc1N1CCN(C2CCOC2)CC1` (centres unmarked) [Example 890] showed a GI50 in assay [1] of 0.3 to 30 nM. Further, in assay [2], the IC50 lay in the range of 1 to 10 nM.

`Cc1ncc(-c2cc(F)cc(-c3ccc(-n4ccn(C)c4=O)c(Cl)c3)c2O)cc1N1CCC2(CCN2C(C)C)C1` (centres unmarked) [Example 891]: the 50% growth inhibitory concentration (GI50) in assay [1] lay within 0.3 to 30 nM. The IC50 in assay [2] was 1 to 10 nM.

Molecule `CC(C)N1CCC12CCN(c1cccc(-c3cc(F)cc(-c4ccc(-n5ccn(C)c5=O)c(Cl)c4)c3O)c1)C2` (centres unmarked) [Example 892] displayed a GI50 in assay [1] of 0.3 to 30 nM. The IC50 in assay [2] fell in the range of 1 to 10 nM.

Turning to `CC(=O)Nc1cccc(-c2cc(F)cc(-c3cccc(N4CCC(C)(O)C4)c3)c2O)c1Cl` (centres unmarked) [Example 893], the GI50 in assay [1] was in the range of 300 to 3000 nM. Also, in assay [2], the IC50 is over 100 nM.

In the case of `CC(=O)Nc1cnc(-c2cc(F)cc(-c3cccc(N4CCN(C(C)(C)C)CC4)c3)c2O)nc1` [Example 894], in assay [1], the 50% growth inhibitory concentration (GI50) lay within 300 to 3000 nM. In addition, the half-inhibitory concentration (IC50) in assay [2] is over 100 nM.

In turn, `Cn1ccn(-c2ccc(-c3cc(F)cc(-c4ccnc(N5CCC(C)(NCC(F)(F)F)C5)c4)c3O)cc2Cl)c1=O` (centres unmarked) [Example 895] gave a GI50 in assay [1] of 30 to 300 nM. The IC50 in assay [2] lay within 1 to 10 nM.

In assay [1], `CC(=O)Nc1ccc(-c2cc(F)cc(-c3cccc(N4CCN(C(C)(C)C)CC4)c3)c2O)nn1` [Example 896] gave a GI50 of 300 to 3000 nM. The IC50 in assay [2] is over 100 nM.

For `Cc1ncc(-c2cc(F)cc(-c3ccc(-n4ccn(C)c4=O)c(Cl)c3)c2O)cc1N1CC(F)(F)[C@@](C)(O)C1` [Example 897], the GI50 in assay [1] fell in the range of 30 to 300 nM. The IC50 in assay [2] was in the range of 1 to 10 nM.

With `Cc1ncc(-c2cc(F)cc(-c3ccc(-n4ccn(C)c4=O)c(Cl)c3)c2O)cc1N1CC(F)(F)[C@](C)(O)C1` [Example 898], in assay [1], the GI50 lay within 30 to 300 nM. In assay [2], the IC50 lay within 1 to 10 nM.

With `COc1ncc(-c2cc(F)cc(-c3ccc(-n4ccn(C)c4=O)c(Cl)c3)c2O)cc1N1CC(F)(F)[C@@](C)(O)C1` [Example 899], in assay [1], the GI50 fell in the range of 300 to 3000 nM. For the same molecule, the IC50 in assay [2] was 1 to 10 nM.

Consider `COc1ncc(-c2cc(F)cc(-c3ccc(-n4ccn(C)c4=O)c(Cl)c3)c2O)cc1N1CC(F)(F)[C@](C)(O)C1` [Example 900], for which the GI50 in assay [1] lay within 30 to 300 nM. Moreover, the IC50 in assay [2] lay in the range of 0.01 to 1 nM.

`Cn1ccn(-c2ccc(-c3cc(F)cc(-c4cccc(N5CCN(C(C)(C)C)CC5=O)c4)c3O)cc2Cl)c1=O` [Example 901] displayed a concentration for 50% growth inhibition (GI50) in assay [1] of 30 to 300 nM. Moreover, the IC50 in assay [2] was in the range of 0.01 to 1 nM.

In turn, `COc1ncc(-c2cc(F)cc(-c3ccc(-n4ccn(C)c4=O)c(Cl)c3)c2O)cc1N1CC[C@@]2(CCN2C(C)C)C1` [Example 902] came in with a GI50 in assay [1] of 0.3 to 30 nM. Moreover, the IC50 in assay [2] fell in the range of 0.01 to 1 nM.

`COc1ncc(-c2cc(F)cc(-c3ccc(-n4ccn(C)c4=O)c(Cl)c3)c2O)cc1N1CC[C@]2(CCN2C(C)C)C1` [Example 903] displayed a GI50 in assay [1] of 0.3 to 30 nM. Besides, in assay [2], the IC50 fell in the range of 0.01 to 1 nM.

Take `Cn1ccn(-c2ccc(-c3cc(F)cc(-c4cc(Cl)c(F)c(N5CCN(C(C)(C)C)CC5)c4)c3O)cc2Cl)c1=O` [Example 904]: the GI50 in assay [1] was 30 to 300 nM. For the same molecule, the IC50 in assay [2] lay within 0.01 to 1 nM.

`Cn1ccn(-c2ccc(-c3cc(F)cc(-c4cc(N5CCN(C(C)(C)C)CC5)no4)c3O)cc2Cl)c1=O` [Example 905, 1-(3′-(3-(4-(tert-butyl)piperazin-1-yl)isoxazol-5-yl)-3-chloro-5′-fluoro-2′-hydroxy-[1,1′-biphenyl]-4-yl)-3-methyl-1H-imidazol-2(3H)-one] gave a 50% growth inhibitory concentration (GI50) in assay [1] of 30 to 300 nM. Also, the IC50 in assay [2] is 1 to 10 nM.

In the case of `CC(C)N1[C@H](C)CN(c2cccc(-c3cc(F)cc(-c4ccc(-n5ccn(C)c5=O)c(Cl)c4)c3O)c2)C[C@@H]1C` [Example 906, 1-(3-chloro-5′-fluoro-2′-hydroxy-3″-((3R,5S)-4-isopropyl-3,5-dimethylpiperazin-1-yl)-[1,1′:3′,1″-terphenyl]-4-yl)-3-methyl-1H-imidazol-2(3H)-one], the GI50 in assay [1] was 0.3 to 30 nM. Moreover, the IC50 in assay [2] is 0.01 to 1 nM.

As to `CC(=O)Nc1ncc(-c2cc(F)cc(-c3cccc(N4CCN(C(C)(C)C)CC4)c3)c2O)cn1` [Example 907, N-(5-(3′-(4-(tert-butyl)piperazin-1-yl)-5-fluoro-2-hydroxy-[1,1′-biphenyl]-3-yl)pyrimidin-2-yl)acetamide], the GI50 in assay [1] is over 3000 nM. For the same molecule, the IC50 in assay [2] was over 100 nM.

Molecule `CC(=O)Nc1ccc(-c2cc(F)cc(-c3cccc(N4CCN(C(C)(C)C)CC4)c3)c2O)cn1` [Example 908, N-(5-(3′-(4-(tert-butyl)piperazin-1-yl)-5-fluoro-2-hydroxy-[1,1′-biphenyl]-3-yl)pyridin-2-yl)acetamide] showed a GI50 in assay [1] of over 3000 nM. Besides, the half-inhibitory concentration (IC50) in assay [2] was over 100 nM.

The molecule `CC(C)N1CCCC12CCN(c1cccc(-c3cc(F)cc(-c4ccc(-n5ccn(C)c5=O)c(Cl)c4)c3O)c1)C2` (centres unmarked) [Example 909, 1-(3-chloro-5′-fluoro-2′-hydroxy-3″-(1-isopropyl-1,7-diazaspiro[4.4]nonan-7-yl)-[1,1′:3′,1″-terphenyl]-4-yl)-3-methyl-1H-imidazol-2(3H)-one] returned a GI50 in assay [1] of 30 to 300 nM. Moreover, the IC50 in assay [2] fell in the range of 1 to 10 nM.

Take `COc1cc(-c2cc(F)cc(-c3cccc(N4CCN(C(C)(C)C)CC4)c3)c2O)cc(Cl)c1-n1ccn(C)c1=O` [Example 910, 1-(3″-(4-(tert-butyl)piperazin-1-yl)-3-chloro-5′-fluoro-2′-hydroxy-5-methoxy-[1,1′:3′,1″-terphenyl]-4-yl)-3-methyl-1H-imidazol-2(3H)-one]: the GI50 in assay [1] lay within 30 to 300 nM. The IC50 in assay [2] was 10 to 100 nM.

Turning to `Cc1ncc(-c2cc(F)cc(-c3ccc(-n4ccn(C)c4=O)c(Cl)c3)c2O)cc1N1CCC2(CCCN2C(C)C)C1` (centres unmarked) [Example 911, 1-(3-chloro-5′-fluoro-2′-hydroxy-3′-(5-(1-isopropyl-1,7-diazaspiro[4.4]nonan-7-yl)-6-methylpyridin-3-yl)-[1,1′-biphenyl]-4-yl)-3-methyl-1H-imidazol-2(3H)-one], the GI50 in assay [1] was in the range of 0.3 to 30 nM. For the same molecule, the IC50 in assay [2] fell in the range of 0.01 to 1 nM.

In assay [1], `CC(=O)Nc1ccc(-c2cc(F)cc(-c3cccc(N4CCN(C(C)(C)C)CC4)c3)c2O)nc1` [Example 912, N-(6-(3′-(4-(tert-butyl)piperazin-1-yl)-5-fluoro-2-hydroxy-[1,1′-biphenyl]-3-yl)pyridin-3-yl)acetamide] showed a GI50 of 300 to 3000 nM. Besides, the IC50 in assay [2] is over 100 nM.

In the case of `COc1ncc(-c2cc(F)cc(-c3ccc(-n4ccn(C)c4=O)c(Cl)c3)c2O)cc1N1CCC2(CCCN2C(C)C)C1` (centres unmarked) [Example 913, 1-(3-chloro-5′-fluoro-2′-hydroxy-3′-(5-(1-isopropyl-1,7-diazaspiro[4.4]nonan-7-yl)-6-methoxypyridin-3-yl)-[1,1′-biphenyl]-4-yl)-3-methyl-1H-imidazol-2(3H)-one], in assay [1], the GI50 fell in the range of 0.3 to 30 nM. Moreover, the 50% inhibitory concentration (IC50) in assay [2] was 0.01 to 1 nM.

As to `Cn1ccn(-c2ccc(-c3cc(F)cc(-c4cnc(N)c(N5CCN(C(C)(C)C)CC5)c4)c3O)cc2Cl)c1=O` [Example 914, 1-(3′-(6-amino-5-(4-(tert-butyl)piperazin-1-yl)pyridin-3-yl)-3-chloro-5′-fluoro-2′-hydroxy-[1,1′-biphenyl]-4-yl)-3-methyl-1H-imidazol-2(3H)-one], the GI50 in assay [1] is 0.3 to 30 nM. In assay [2], the IC50 fell in the range of 1 to 10 nM.

The molecule `Cn1ccn(-c2ccc(-c3cc(F)cc(-c4ccnc(N5CCS(=N)(=O)CC5)c4)c3O)cc2Cl)c1=O` [Example 915, 1-(3-chloro-5′-fluoro-2′-hydroxy-3′-(2-(1-imino-1-oxidothiomorpholino)pyridin-4-yl)-[1,1′-biphenyl]-4-yl)-3-methyl-1H-imidazol-2(3H)-one] displayed a GI50 in assay [1] of 30 to 300 nM. Also, the IC50 in assay [2] is 0.01 to 1 nM.

In assay [1], `Cc1cc(-c2ccc(-n3ccn(C)c3=O)c(Cl)c2)c(O)c(-c2cccc(N3CCN(C(C)(C)C)CC3)c2)n1` [Example 916, 1-(4-(2-(3-(4-(tert-Butyl)piperazin-1-yl)phenyl)-3-hydroxy-6-methylpyridin-4-yl)-2-chlorophenyl)-3-methyl-1H-imidazol-2(3H)-one] registered a GI50 of 0.3 to 30 nM. In addition, in assay [2], the IC50 fell in the range of 0.01 to 1 nM.
